Reference: patent publication US20130317037A1, “METHOD OF ADMINISTRATION AND TREATMENT” (GlaxoSmithKline Intellectual Property Development Limited, priority 2010, published 2013)
Where two headings read alike, the source gives them in different places.

Key:
[1] = test system: panel of 51 human breast cell lines; assay: Breast Cell Line Panel B proliferation assay, panel summary; format: cell-based; conditions: for IC50: 51 human breast cell lines
Experimental: From the stock concentration, 8 serial dilutions (1:5) were made with DMSO.
Generally, about 5 μl was added to the 100 μl of cell culture during the treatment, and each dose was replicated in three wells.
Day −1: Plate cells in 100 μl volume in 96 well plate. • Note: Cell number seeded adjusted for growth characteristics, so that at time of assay for proliferation following three-day drug treatment, the control wells should still be in log-growth phase (sub-confluent). Day 0: Drug added to plate for treatment. • A time 0 plate was processed for the proliferation assay to establish a baseline reading at time when drug was added.
LBNL are following the protocols set up by the NCI/NIH DTP Human Tumor Cell Line Screen Process (http://dtp.nci.nih.gov/branches/btb/ivclsp.html) and summarized below.
[(Ti−Tz)/(C−Tz)]×100 for concentrations for which Ti>/=Tz
[(Ti−Tz)/Tz]×100 for concentrations for which Ti<Tz. • C: control growth (vehicle control growth) • Tz: reading at time 0 • Ti: test growth in the presence of drug at the nine concentration levels gIC50: Growth inhibition of 50% is calculated from
[(Ti−Tz)/(C−Tz)]×100=50, • which is the drug concentration resulting in a 50% reduction in the net growth in control cells during the drug incubation. TGI: Total growth inhibition is calculated from
Ti=Tz. • The drug concentration resulting in total growth inhibition (down to the ‘time 0’ baseline). LC50: Net loss of cell growth at 50% is calculated from
[(Ti−Tz)/Tz]×100=−50. • The concentration of drug resulting in a 50% reduction in the cell number at the end of the drug treatment as compared to that at the beginning (time 0) indicating a net loss of cells following treatment.
Values are calculated for each of these three parameters if the level of activity is reached; however, if the effect is not reached or is exceeded, the value for that parameter is expressed as greater or less than the maximum or minimum concentration tested.

T-47D = assay: Panel A proliferation assay (CellTiter-Glo); HER2 Gain <5, KRAS WT, PIK3CA p.H1047R; format: cell-based, human; conditions: for IC50: Homo sapiens, T47D
Experimental: A total of 15 breast cancer cell lines were used in this study. These cells were cultured in RPMI-1640 and supplemented with 5% or 10% fetal bovine serum, 2 mM GlutaMAX™ and 1 mM sodium pyruvate, or in growth medium recommended by the suppliers [American Type Culture Collection, Manassas, Va., USA; Developmental Therapeutics Program, National Cancer Institute, Bethesda, Md., USA; German Collection of Microorganisms and Cell Cultures (DSMZ), Braunschweig, Germany; European Collection of Cell Cultures (ECACC), Porton Down, UK]. Cells of each line were seeded into a 384-well microtiter plate at two cell densities. Low density ranges were 300-1800 cells/well, and a high density was 600 to 3600 cells/well). The plating density was determined by the rate of proliferation of the cell line in the absence of any inhibitor and varied amongst cell lines. High plating densities were double that of low density. Each cell density was plated in triplicate. In total there were 30 wells to be treated with increasing concentrations of Compound B for each cell line at each density. In addition, there were 24 wells of dimethyl sulfoxide (DMSO)-treated controls at each density. After seeding, the cells were incubated at 37° C. in 5% CO2 for 24 hours. Subsequently, Compound B was added to each cell line with 10 concentrations. The dosing solution of Compound B was first prepared in DMSO at a master stock concentration of 10 mM. […] were then made of the stock solution to give a range of working stock concentrations; 10.00 mM, 3.164 mM, 1.001 mM, 316.9 μM, 100.3 μM, 31.74 μM, 10.04 μM, 3.178 μM, 1.006 μM and 318.3 nM. The working stock concentrations of Compound B were then dispensed into the seeded cancer cell lines using a Biomek FX liquid handler to give final treatment concentrations of 0.1% of the stock concentration. A similar volume of DMSO without Compound B was dispensed into the 24 control wells of each seeding density at a concentration of 0.1%. Also, a zero-time plate prepared with a similar cell seeding was read for each cell line at each seeding density immediately after the addition of the DMSO control. After a 72 h incubation, an equal volume of the CellTiter-Glo (CellTiter-Glo Luminescent Cell Viability Assay, Promega, Madison, Wis.) to that of the cell culture medium was added into each well of the plate. After the contents were mixed to induce cell lysis and stabilization, cell luminescence was recorded using a SpectraMax M5^e (Molecular Devices, Sunnyvale, Calif., USA)
The luminescence of Compound B treated cells was compared relative to the average of the 24 DMSO-treated control wells at each cell density for every concentration of Compound B for all triplicate wells. The percent intensity values were used in model 205 of XLfit in Microsoft Excel to calculate gIC50s for the low and high seeding density (a 4 parameter logistical fit). Specifically, the midpoint of the growth window (the gIC50) falls half way between the number of cells at the time of compound addition (T=0) and the growth of control cells treated with DMSO. The gIC50 value serves as a metric for measuring the inhibition of proliferation in cancer cells. […] Finally, where data quality permits, the Ymin values (defined as the maximum growth inhibition relative to the cell density at Time-zero) were calculated as a measure of cytotoxicity where data were of reasonable quality.

PI3K family of enzymes = assay: Selectivity in a large panel of protein kinases; format: biochemical

Structure (SMILES): COc1ncc(-c2ccc3nccc(-c4ccnnc4)c3c2)cc1NS(=O)(=O)c1ccc(F)cc1F [Compound B, 2,4-difluoro-N-{2-(methyloxy)-5-[4-(4-pyridazinyl)-6-quinolinyl]-3-pyridinyl}benzenesulfonamide]
- IC50 ([1]; read-out: average gIC50): 28.9 nM
- IC50 ([1]; read-out: gIC50s across the panel (range)): 1.1 to 398 nM
- IC50 ([1]; read-out: overall median gIC50): 10.4 nM
- tumor cell lines with gIC50>30 nM ([1]; number of lines / lines tested): 16/51
- tumor cell lines with gIC50s<3 nM ([1]; number of lines / lines tested): 7/51
- IC50 (T-47D; high seeding density, 72 h, read-out: High Density gIC50): 1.8 nM
- IC50 (T-47D; low seeding density, 72 h, read-out: Low Density gIC50): 1.1 nM
- IC50 (T-47D; mean of low and high density, read-out: Mean gIC50): 1.45 nM
- High Density Y-Min (T-47D; high density, % of cells at T = 0): 103.6%
- Low Density Y-Min (T-47D; low density, % of cells at T = 0): 104.6%
- selectivity for the PI3K family of enzymes (PI3K family of enzymes): good selectivity
